Source: PMC3435245, “D-Alanylation of Lipoteichoic Acids Confers Resistance to Cationic Peptides in Group B Streptococcus by Increasing the Cell Wall Density” (PLoS Pathogens, 2012)
In brackets after ≈: the same amount, converted by molar mass. Marks after values point to notes of the source that are not given here. Where a SMILES comes first, the peptide text is derived from it. Bridges are numbered along the chain shown (N, C = ends). [ ]: non-standard residue; d: D form. The star is where a group is joined. Heptanoyl(6-Me) = CC(C)CCCCC(=O)*; X1 = CC[C@H](C)CCCCC(=O)*; Dab = NCC[C@H](N)C(=O)O

Key:
GBS Δlgt Δlsp mutant = test: MIC90 by dilution method, GBS Δlgt Δlsp; format: cell-based, Streptococcus agalactiae; conditions: Todd-Hewitt broth with 100 mM HEPES, 2×10^6 CFU, 96-well polypropylene microplate, overnight 37°C, OD600 nm; average of triplicate measurements
Procedure: (§1) The MICs of each antimicrobial peptide were tested in Todd-Hewitt broth (THB) buffered with 100 mM HEPES in 96-well polypropylene microplates (Costar, Cambridge, MA) by a dilution method. Bacteria (2×10^6 CFU) were added in triplicates to wells containing increasing concentrations of the antimicrobial peptides. Plates were incubated at 37°C with shaking overnight and then read (OD600 nm) using microplate reader (Labsystems Multiskanat) for bacterial growth. The MICs90 was considered to be the peptide concentration that inhibited 90% growth.

GBS ΔmprF mutant = test: MIC90 by dilution method, GBS ΔmprF; format: cell-based, Streptococcus agalactiae; conditions: Todd-Hewitt broth with 100 mM HEPES, 2×10^6 CFU, 96-well polypropylene microplate, overnight 37°C, OD600 nm; average of triplicate measurements
Procedure: as §1

GBS NEM316 WT strain = format: cell-based, Streptococcus agalactiae; conditions: Todd-Hewitt broth with 100 mM HEPES, 2×10^6 CFU, 96-well polypropylene microplate, overnight 37°C, OD600 nm; average of triplicate measurements
Procedure: as §1

GBS ΔcpsD mutant = test: MIC90 by dilution method, GBS ΔcpsD; format: cell-based, Streptococcus agalactiae; conditions: Todd-Hewitt broth with 100 mM HEPES, 2×10^6 CFU, 96-well polypropylene microplate, overnight 37°C, OD600 nm; average of triplicate measurements
Procedure: as §1

GBS ΔdltA mutant = test: MIC90 by dilution method, GBS ΔdltA; format: cell-based, Streptococcus agalactiae; conditions: for MIC90, ΔdltA: Todd-Hewitt broth with 100 mM HEPES, 2×10^6 CFU, 96-well polypropylene microplate, overnight 37°C, OD600 nm, average of triplicate measurements; for more active against the dltA mutant compared to the WT (fold dilution): from MICs of Table 2, statement for all natural peptides; for fold more active on the dltA mutant compared to the WT: from MICs, WT versus dltA mutant
Procedure: as §1

GBS ΔsrtA mutant = test: MIC90 by dilution method, GBS ΔsrtA; format: cell-based, Streptococcus agalactiae; conditions: Todd-Hewitt broth with 100 mM HEPES, 2×10^6 CFU, 96-well polypropylene microplate, overnight 37°C, OD600 nm; average of triplicate measurements
Procedure: as §1

[1] = RP-HPLC hydrophobicity (% AcN at elution); format: physicochemical; conditions: chromatographic, C4 reverse analytical column; eluted in 40 min, linear gradient of acetonitrile 30 to 70% v/v in water containing TFA (0.05% v/v)
Procedure: The procedure conducted as described previously. Briefly, peptides were synthesized using the Fmoc solid phase method on Rink amide resin ([…]). For fluorescent labeling of the N-terminus of the peptides, resin-bound peptides were treated with NBD or rhodamine dissolved in dimethyl formamide (DMF), washed thoroughly with DMF and then with methylene chloride, dried and then cleaved. […] The peptides were subjected to amino acid and mass spectrometry analysis to confirm their composition.

GBS WT strain = test: Rhodamine-labeled peptide fluorescence self-quenching on addition of bacteria (aggregation), WT; format: cell-based, Streptococcus agalactiae; conditions: rhodamine-labeled peptide 1 µM, self-quenching (aggregation) relative to basal signal of the peptide after addition of bacteria, room temperature; means of triplicate measurements from two independent experiments
Excerpt: (§2) We further investigated whether the increased cell wall density resulting from D-alanylation of LTAs can reduce CAMPs penetration through the cell wall barrier by following the interaction of fluorescently labeled CAMPs with intact bacteria. […] Here, we investigated if the peptides display different aggregation states when bound to the WT or the dltA mutant strains. This was done by monitoring changes in the signal intensity of rhodamine-labeled peptides following their interaction with the bacterial surface under under high (160 mM NaCl) and low (16 mM NaCl) ionic strength conditions. Addition of bacteria to the rhodamine-labeled peptides induced self-quenching of fluorescence for all tested peptides. However, no significant difference in aggregation was found in the WT compared to the dltA strain (Figure 7A and Table 3).
Real time tracking of the changes in the fluorescent signal of rhodamine or NBD labeled peptides was performed using an SLM-Aminco Bowman series 2-luminescence spectrophotometer (SLM-Aminco, Rochester, NY, USA) at room temperature. Typical spectral bandwidths were 5 nm for excitation and 5 nm for emission. […] Following signal stabilization, bacterial suspension (10 µl, OD600 nm adjusted to 4) or liposomes suspension (100 µM lipid final concentration) composed of cardiolipid/PG (1∶1 M/M) was added to the cuvette and the change in signal was monitored over time.

GBS dltA mutant = test: Rhodamine-labeled peptide fluorescence self-quenching on addition of bacteria (aggregation), dltA; format: cell-based, Streptococcus agalactiae; conditions: rhodamine-labeled peptide 1 µM
Excerpt: as §2
Real time tracking of the changes in the fluorescent signal of rhodamine or NBD labeled peptides was performed using an SLM-Aminco Bowman series 2-luminescence spectrophotometer (SLM-Aminco, Rochester, NY, USA) at room temperature. Typical spectral bandwidths were 5 nm for excitation and 5 nm for emission. […] The peptides were placed in a 5×5-mm quartz cuvette with constant magnetic stirring. Following signal stabilization, bacterial suspension (10 µl, OD600 nm adjusted to 4) or liposomes suspension (100 µM lipid final concentration) composed of cardiolipid/PG (1∶1 M/M) was added to the cuvette and the change in signal was monitored over time.

[2] = self-quenching (aggregation) relative to basal signal of the peptide after addition of bacteria, room temperature, means of triplicate measurements from two independent experiments

| Molecule | MIC90, Δlgt Δlsp (GBS Δlgt Δlsp mutant) [µM] | MIC90, ΔmprF (GBS ΔmprF mutant) [µM] | MIC90, WT (GBS NEM316 WT strain) [µM] | MIC90, ΔcpsD (GBS ΔcpsD mutant) [µM] | MIC90, ΔdltA (GBS ΔdltA mutant) [µM] | more active against the dltA mutant compared to the WT (fold dilution) (GBS ΔdltA mutant) | fold more active on the dltA mutant compared to the WT (GBS ΔdltA mutant) [fold] | MIC90, ΔsrtA (GBS ΔsrtA mutant) [µM] | Hydrophobicity (% AcN) [1] [% AcN] | Signal change [%], NaCl (16 mM), WT (GBS WT strain) [%] | Signal change [%], NaCl (160 mM), WT (GBS WT strain) [%] | Signal change [%], NaCl (16 mM), dltA (GBS dltA mutant; [2]) [%] | Signal change [%], NaCl (160 mM), dltA (GBS dltA mutant; [2]) | Difference in signal change [%], NaCl (160 mM), Δ(dltA-WT) (GBS dltA mutant; difference in the signal change between dltA strain to the WT strain) [%] |
| --- | --- | --- | --- | --- | --- | --- | --- | --- | --- | --- | --- | --- | --- | --- |
| CC(C)CCCCC(=O)N[C@@H](CCN)C(=O)N[C@H](C(=O)N[C@@H](CCN)C(=O)N[C@H]1CCNC(=O)[C@H]([C@@H](C)O)NC(=O)[C@H](CCN)NC(=O)[C@H](CCN)NC(=O)[C@H](CC(C)C)NC(=O)[C@@H](CC(C)C)NC(=O)[C@H](CCN)NC1=O)[C@@H](C)O ({Heptanoyl(6-Me)}-[Dab]T[Dab][Dab][Dab][dL]L[Dab][Dab]T; lactam 4-C; N-terminus assumed) | >221.6 | >221.6 | >221.6 | >221.6 | 13.9 (≈ 16.1 µg/mL) | > 2 | 8 | >221.6 | – | – | – | – | – | – |
| CC(C)C[C@H](NC(=O)[C@H](CC(C)C)NC(=O)[C@H](CCCCN)NC(=O)[C@H](CC(C)C)NC(=O)[C@H](CC(C)C)NC(=O)[C@H](CCCCN)NC(=O)[C@H](CCCCN)NC(=O)[C@H](CC(C)C)NC(=O)[C@H](CC(C)C)NC(=O)[C@H](CCCCN)NC(=O)[C@H](CCCCN)NC(=O)[C@H](CC(C)C)NC(=O)[C@H](CC(C)C)NC(=O)[C@H](CCCCN)NC(=O)[C@@H](N)CC(C)C)C(N)=O [K6L9] (H-LKLLKKLLKKLLKLL-NH2; N-terminus assumed) | 17.7 (≈ 31.9 µg/mL) | 17.7 (≈ 31.9 µg/mL) | 35.5 (≈ 64.1 µg/mL) | 35.5 (≈ 64.1 µg/mL) | 17.7 (≈ 31.9 µg/mL) | – | – | 35.5 (≈ 64.1 µg/mL) | 67.2 | – | – | – | – | – |
| CC(C)C[C@H](NC(=O)[C@H](CC(C)C)NC(=O)[C@H](CCCCN)NC(=O)[C@H](CC(C)C)NC(=O)[C@H](CC(C)C)NC(=O)[C@H](CC(C)C)NC(=O)[C@H](CCCCN)NC(=O)[C@H](CC(C)C)NC(=O)[C@H](CC(C)C)NC(=O)[C@H](CCCCN)NC(=O)[C@@H](N)CCCCN)C(=O)N[C@@H](CCCCN)C(N)=O [K5L7] (H-KKLLKLLLKLLK-NH2) | – | – | 25 (≈ 36.3 µg/mL) | – | 25 (≈ 36.3 µg/mL) | – | – | – | – | – | – | – | – | – |
| CC[C@H](C)[C@H](NC(=O)CN)C(=O)NCC(=O)N[C@@H](CCCCN)C(=O)N[C@@H](Cc1ccccc1)C(=O)N[C@@H](CC(C)C)C(=O)N[C@@H](Cc1c[nH]cn1)C(=O)N[C@@H](CO)C(=O)N[C@@H](C)C(=O)N[C@@H](CCCCN)C(=O)N[C@@H](CCCCN)C(=O)N[C@@H](Cc1ccccc1)C(=O)NCC(=O)N[C@@H](CCCCN)C(=O)N[C@@H](C)C(=O)N[C@@H](Cc1ccccc1)C(=O)N[C@H](C(=O)NCC(=O)N[C@@H](CCC(=O)O)C(=O)N[C@H](C(=O)N[C@@H](CCSC)C(=O)N[C@@H](CC(N)=O)C(=O)N[C@@H](CO)C(N)=O)[C@@H](C)CC)C(C)C [Magainin 2] (H-GIGKFLHSAKKFGKAFVGEIMNS-NH2) | >25.5 | >25.5 | >25.5 | >25.5 | 6.4 (≈ 15.8 µg/mL) | – | – | >25.5 | – | – | – | – | – | – |
| CH3(CH2)6CO-KKLLKLLLKLLK-NH2 [C8-K5L7, lipopeptide: K5L7 coupled to a short fatty acid] | – | – | 3 | – | 3 | – | – | – | 61.4 | – | – | – | – | – |
| CC(C)C[C@H](NC(=O)[C@H](CCCCN)NC(=O)[C@H](CCCCN)NC(=O)[C@H](CCCCN)NC(=O)[C@H](CC(C)C)NC(=O)[C@H](CCCCN)NC(=O)[C@H](CCCCN)NC(=O)[C@H](CC(C)C)NC(=O)[C@H](CC(C)C)NC(=O)[C@H](CCCCN)NC(=O)[C@H](CCCCN)NC(=O)[C@H](CC(C)C)NC(=O)[C@H](CCCCN)NC(=O)[C@H](CCCCN)NC(=O)[C@@H](N)CC(C)C)C(N)=O [K9L6] (H-LKKLKKLLKKLKKKL-NH2) | – | – | 25 (≈ 46.2 µg/mL) | – | 25 (≈ 46.2 µg/mL) | – | – | – | – | – | – | – | – | – |
| CC[C@H](C)[C@H](NC(=O)[C@H](CCCCN)NC(=O)[C@H](CCC(=O)O)NC(=O)[C@H](CCCCN)NC(=O)[C@H](CO)NC(=O)[C@H](CCCCN)NC(=O)[C@H](CCCNC(=N)N)NC(=O)[C@H](Cc1ccccc1)NC(=O)[C@H](Cc1ccccc1)NC(=O)[C@H](CC(=O)O)NC(=O)CNC(=O)[C@H](CC(C)C)NC(=O)[C@@H](N)CC(C)C)C(=O)NCC(=O)N[C@@H](CCCCN)C(=O)N[C@@H](CCC(=O)O)C(=O)N[C@@H](Cc1ccccc1)C(=O)N[C@@H](CCCCN)C(=O)N[C@@H](CCCNC(=N)N)C(=O)N[C@H](C(=O)N[C@H](C(=O)N[C@@H](CCC(N)=O)C(=O)N[C@@H](CCCNC(=N)N)C(=O)N[C@H](C(=O)N[C@@H](CCCCN)C(=O)N[C@@H](CC(=O)O)C(=O)N[C@@H](Cc1ccccc1)C(=O)N[C@@H](CC(C)C)C(=O)N[C@@H](CCCNC(=N)N)C(=O)N[C@@H](CC(N)=O)C(=O)N[C@@H](CC(C)C)C(=O)N[C@H](C(=O)N1CCC[C@H]1C(=O)N[C@@H](CCCNC(=N)N)C(=O)N[C@H](C(=O)N[C@@H](CCC(=O)O)C(=O)N[C@@H](CO)C(N)=O)[C@@H](C)O)C(C)C)[C@@H](C)CC)C(C)C)[C@@H](C)CC [LL-37] | >14.2 | >14.2 | >14.2 | >14.2 | 3.6 (≈ 16.2 µg/mL) | – | – | >14.2 | – | – | – | – | – | – |
| CC[C@H](C)CCCCC(=O)N[C@@H](CCN)C(=O)N[C@H](C(=O)N[C@@H](CCN)C(=O)N[C@H]1CCNC(=O)[C@H]([C@@H](C)O)NC(=O)[C@H](CCN)NC(=O)[C@H](CCN)NC(=O)[C@H](CC(C)C)NC(=O)[C@@H](Cc2ccccc2)NC(=O)[C@H](CCN)NC1=O)[C@@H](C)O [Polymyxin B] (X1-[Dab]T[Dab][Dab][Dab][dF]L[Dab][Dab]T; lactam 4-C (inferred); N-terminus assumed) | 92.4 (≈ 111 µg/mL) | 92.4 (≈ 111 µg/mL) | 92.4 (≈ 111 µg/mL) | 92.4 (≈ 111 µg/mL) | 5.8 (≈ 6.98 µg/mL) | > 2 | 8 | 92.4 (≈ 111 µg/mL) | 53.2 | – | – | – | – | – |
| Rho-LL37: rhodamine-labeled LL37 (N-terminus) | – | – | – | – | – | – | – | – | – | −60.8 | −26.6 | −58.6 | −32.7 ^c % | 6.1 |
